One assay deals with BALB/C mice. The assay is described as follows: Test C: peptide stimulated DTH (delayed type hypersensitivity) in BALB/C mice. The assay is classed as in vivo. Conditions: DTH to ovalbumin, 3-day osmotic mini-pumps. Here is the method:
Test C: Peptide stimulated DTH (delayed type hypersensitivity) in BALB/C mice. […] Balbic female mice (18-20g), 5 per group, were immunised sub-cutaneously on the flank with 0.1 ml of an emulsion of ovalbumin (Sigma) (2mg/ml in saline) mixed 1:1 (v/v) with complete Freunds adjurant (Sigma). Seven days later footpad thickness was detemined using a dual caliper micrometer followed by a challenge in one hind footpad with a 30 μl sub-plantar injection of 1% heat-aggregated ovalbumin protein in saline. Twenty-four hours after antigen challenge, footpads were measured and the DTH response calculated as the percentage increase in footpad thickness in the injected footpad compared to contralateral control. Inhibitors were adminstered by 3-day osmotic mini-pumps (Alzet) implanted 24 hours prior to antigen challenge at doses ranging from 10 mg/kg/day to 0.1 μg/kg/day. The degree of inhibition was calculated by substracting the value for swelling of inhibitor treated footpads from that of the vehicle dosed controls, dividing by the control value and multiplying by 100%.

Another assay concerns the target T1, HLA-DR4Dw4 (Homo sapiens, UniProt P01903+P01911, A100K/A169T/F76Y/I96L/K127E/L162R/M171V/N62H/P40V/Q125Y/R42H/S133A/S149N/S66Y/V115G/V209L/W38E).
T1 construct: a cDNA encoding the β chain is cloned into the transfer vector pAcUW1; made in house; host or cells: Sf21 insect cells, double-recombinant baculovirus
The assay is described as follows: Test A: purified HLA-DR peptide in vitro binding assay. The conditions noted are these: purified HLA-DR4Dw4, biotin-FHA307-320. Here is the method:
Test A: Purified HLA-DR peptide in vitro binding assay. […]. At the end of the incubation period 100 μl of the incubate is transferred to Enzyme Linked lmmunoSorbant Assay (ELISA) plates (Nunc) previously coated with an anti-MHC antibody (L243--American Type Culture Collection (ATCC) HB55 --as described in Lampson and Levy (1980) J. Immunol. 125, 293-299) at a concentration of 10 μg/ml for 1 hour at room temperature and blocked thereafter for 1 hour with 1% bovine serum albumin (BSA) in PBS and 0.05% Tween 20. After a further 1 hour period the unbound peptide is washed away and a 1/4,000 dilution of streptavidin peroxidase (Sigma) in PBS with 0.01% of a suitable detergent such as NP40 (Sigma) added for 2 hours at room temperature. After further washing, tetramethylbenzidene (TMB) substrate solution (1 TMB tablet (Sigma) in 10 mIs of 0.1 M citrate/acetate buffer, pH 6.0 with 36 μl urea hydrogen peroxide (UHPO) (Fluka)) is added to each of the plates. The reaction is stopped by adding 2M sulphuric acid (10 μl per well) and the absorbance read at 450 nm to quantify the amount of peptide bound. The inhibitory activity of peptides is obtained by plotting absorbance against concentration.
The purified HLA-DR4Dw4 may be obtained as follows:
(i) Expression of HLA-DR in the Baculovirus System
The expression of recombinant proteins in insect cells from baculovirus vectors is an established procedure to obtain high yields of recombinant protein [Luckow, V A & Summers, M D, 1988, Biotechnology, 6, 47-551]. To enable the expression of the heterodimeric HLA-DR, eg. HLA-DR4Dw4, from a single recombinant baculovirus vector (as opposed to having separate recombinant viruses for the α and β chains and then doing a co-infection), a double-recombinant baculovirus is constructed which carries both the α and β chains.
A cDNA encoding the sequence of the α polypeptide is cloned into the transfer vector pacYM1 [Matsuura, Y; Possee, R D; Overton, H A & Bishop, D H L, 1987, J. Gen. […] The molecular genetic techniques used to construct the recombinant vectors are likewise readily available in the literature and are most fully described by Sambrook, J; Fritsch, E F & Maniatis T, (1989) [Molecular Cloning. […]
To create the double-recombinant baculovirus, a cDNA encoding the β chain is cloned into the transfer vector pAcUW1 [Weyer, U; Knight, S & Possee, R D, 1990, J. Gen. […] Double-recombinant viruses are detected by spotting insect cells, infected with randomly picked viruses from the transfection, onto membranes and reacting them with a monoclonal antibody, e.g. L243, which specifically recognises the HLA-DR heterodimer. Binding of the antibody to Sf21 insect cells is detected using standard flow cytometry techniques, readily available in the literature. […]

As for “Phv-Gap(Me)4 -Ala-Ala-Ala-Thr-IIb-Ala-Papa-NH2 [Example 16]”, the “dose at which active in Test C” value in the assay on BALB/C mice is on record as under 0.1 mg/kg/day. For the same substance, the “concentration showing significant binding to HLA-DR4Dw4 in Test A” value at HLA-DR4Dw4 is under 0.1 µM.

For the substance “Phv-Arg-Ala-Ala-Ala-Val-IIb-Ala-Pip-NH2 [Example 5]”, in the assay with BALB/C mice, the “dose at which active in Test C” value is recorded as under 0.1 mg/kg/day. In addition, at HLA-DR4Dw4, the “concentration showing significant binding to HLA-DR4Dw4 in Test A” value is under 0.1 µM.

For the substance “Phv-Ala-Arg-Ala-IIb-Ala-Arg-Ala-Papa-NH2 [Example 23]”, the “dose at which active in Test C” value in the assay on BALB/C mice was under 0.1 mg/kg/day. For the same substance, at HLA-DR4Dw4, the “concentration showing significant binding to HLA-DR4Dw4 in Test A” value was under 0.1 µM.

The values are drawn from patent publication US6087336A, “Peptide derivatives useful in treating autoimmune diseases” (Zeneca Limited, priority 1996, dated 2000).
